Assay results published in patent US6583309B1 (University of Medicine and Dentistry of New Jersey, priority 1999, dated 2003).
Where two headings read alike, the source gives them in different places.

Experiments:
[1] = tested on: TAR-TAT complex formation in HL3T1 cells; experiment: In vivo assay: inhibition of TAR-TAT complex formation in HL3T1 cells (HIV-1 LTR promoter, CAT reporter); type: cell-based; details: compounds of formula V transfected into HL3T1 cells with pSV2Tat and pAL, CAT and luciferase read after 48 hour, read-out: Kd (nM), binding constants
Experimental: Binding of compounds of formula I and V to TAR RNA was measured by evaluating their inhibition of TAR-TAT complex formation in the presence of increasing levels of the compound to be tested. The compounds of formula I were tested in an in vitro assay; the compounds of formula V were tested in an in vivo assay.
Cells were grown in 2 mL of Dulbecco's modified Eagle medium (DMEM) supplemented with 10% fetal calf serum in 60 mm dishes at 37° C. in 5% CO2 in a tissue culture incubator. Cells were refreshed by 2 mL DMEM before transfection. Transfection was started by dropwise addition of 250 μL 2×HeBS (Hepes-buffered saline) and then keeping at room temperature for 10 minutes. Approximately 10 μg of plasmids (pSV2Tat and pAL) and increasing amounts of the Compounds DV, DW, DX or DY were transfected in the presence of CaCl2 (final concentration 125 mM) and the cells were incubated for 4 hour at 37° C. in a tissue culture incubator. The medium was then discarded and the cells were subjected to glycerol (1.5 mL of 15%) shock for 45 seconds. Finally the cells were washed twice with PBS (5 mL) and were grown in 3 mL DMEM. The cells were harvested after 48 hour post-transfection with changing with fresh DMEM at 24 hours and lysed in reporter lysis buffer (Promega). Aliquots were used for CAT and luciferase assays. Both activities were normalized to protein concentration determined by using a modified Bradford assay (Bio-Rad).

TAR RNA [2] = experiment: In vitro binding of resin-bound compounds to TAR RNA (OD260 of unbound RNA); design: species or system HIV; details: in vitro assay; compounds of formula I on TentaGel beads incubated with TAR RNA overnight at 4° C. in TK buffer; read-out: Kd (nM), binding constants
Procedure, shortened: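 Ten beads of TentaGel-bound compound in TK buffer were incubated overnight at 4 °C with T7-transcribed 29-residue TAR RNA ([…]). Unbound RNA in the supernatant was quantified by OD260. KD was calculated from equilibrium RNA concentrations assuming simple bimolecular binding.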

TAR RNA [3] = details: TAT binding to TAR RNA, Dingwall et al. (1990); cited from earlier work

Row | Compound | Kd (TAR RNA [2]) | also measured
1 | N=C(N)NCCC[C@@H](CNC(=O)N[C@@H](CCCNC(=N)N)CNC(=O)N[C@H](CN)CCCCN)NC(N)=O |  | Kd [1]: 500 nM
2 | NCCCCCCCNCC(=O)N(CCCCCN)CC(=O)N[C@@H](CCCCN)COC(N)=O [Compound DG, Carbamic acid 6-amino-2-{2-[[2-(7-amino-heptylamino)-acetyl]-(5-amino-pentyl)-amino]-acetylamino}-hexyl ester] | 235 nM | 
3 | NCCCCCN(CC(=O)N[C@@H](CCCCN)COC(N)=O)C(=O)CNCCCCN [Compound DH, Carbamic acid 6-amino-2-{2-[[2-(4-amino-butylamino)-acetyl]-(5-amino-pentyl)-amino]-acetylamino}-hexyl ester] | 7690 nM | 
4 | N=C(N)NCCC[C@H](N)COC(=O)N(CCCCCN)CC(=O)N[C@@H](CCCCN)COC(N)=O [Compound DI, Carbamic acid 6-amino-2-{2-[(2-amino-5-guanidino-pentyloxycarbonyl)-(5-amino-pentyl)-amino]-acetylamino}-hexyl ester] | 235 nM | 
5 | NCCCCCN(CC(=O)N[C@@H](CCCCN)COC(N)=O)C(=O)OC[C@H](N)CCC(N)=O [Compound DJ, Carbamic acid 6-amino-2-{2-[(2-amino-4-carbamoyl-butoxycarbonyl)-(5-amino-pentyl)-amino]-acetylamino}-hexyl ester] | 603 nM | 
6 | NCCCCCCCN(CC(=O)N[C@@H](CCCCN)COC(N)=O)C(=O)OC[C@@H](N)CCCCN [Compound DK, Carbamic acid 6-amino-2-{2-[(7-amino-heptyl)-(2,6-diamino-hexyloxycarbonyl)-amino]-acetylamino}-hexyl ester] | 1110 nM | 
7 | NCCCCCCCN(CC(=O)N[C@@H](CCCCN)COC(N)=O)C(=O)OC[C@H](N)CCCCN [Compound DL, Carbamic acid 6-amino-2-{2-[(7-amino-heptyl)-(2,6-diamino-hexyloxycarbonyl)-amino]-acetylamino}-hexyl ester] | 678 nM | 
8 | NCCCCCCCN(CC(=O)N[C@@H](CCCCN)COC(N)=O)C(=O)[C@@H](N)CCCCN [Compound DM, Carbamic acid 6-amino-2-{2-[(7-amino-heptyl)-(2,6-diamino-hexanoyl)-amino]-acetylamino}-hexyl ester] | 256 nM | 
9 | NCCCCCCCN(CC(=O)N[C@@H](CCCCN)COC(N)=O)C(=O)[C@H](N)CCCCN [Compound DN, Carbamic acid 6-amino-2-{2-[(7-amino-heptyl)-(2,6-diamino-hexanoyl)-amino]-acetylamino}-hexyl ester] | 678 nM | 
10 | NCCCCCCCN(CC(=O)N[C@@H](CCCCN)COC(N)=O)C(=O)CNCCCCCN [Compound DO, Carbamic acid 6-amino-2-(2-{(7-amino-heptyl)-[2-(5-amino-pentylamino)-acetyl]-amino}-acetylamino)-hexyl ester] | 1040 nM | 
11 | NCCCCCCCNCC(=O)N(CCCCCCCN)CC(=O)N[C@@H](CCCCN)COC(N)=O [Compound DP, Carbamic acid 6-amino-2-(2-{(7-amino-heptyl)-[2-(7-amino-heptylamino)-acetyl]-amino}-acetylamino)-hexyl ester] | 774 nM | 
12 | NCCCCCCCN(CC(=O)N[C@@H](CCCCN)COC(N)=O)C(=O)CNCCCCN [Compound DQ, Carbamic acid 6-amino-2-{2-[[2-(4-amino-butylamino)-acetyl]-(7-amino-heptyl)-amino]-acetylamino}-hexyl ester] | 6140 nM | 
13 | N=C(N)NCCC[C@H](N)COC(=O)N(CCCCCCCN)CC(=O)N[C@@H](CCCCN)COC(N)=O [Compound DR] | 460 nM | 
14 | NCCCCCCCN(CC(=O)N[C@@H](CCCCN)COC(N)=O)C(=O)OC[C@H](N)CCC(N)=O [Compound DS, Carbamic acid 6-amino-2-{2-[(2-amino-4-carbamoyl-butoxycarbonyl)-(7-amino-heptyl)-amino]-acetylamino}-hexyl ester] | 3150 nM | 
15 | N=C(N)NCCC[C@H](N)COC(=O)N[C@@H](CCCCN)C(=O)N[C@H](CCCCN)COC(N)=O [Compound DT, Carbamic acid 6-amino-2-[6-amino-2-(2-amino-5-guanidino-pentyloxycarbonylamino)-hexanoylamino]-hexyl ester] | 215 nM | 
16 | NCCCC[C@H](COC(N)=O)NC(=O)[C@H](CCCCN)NC(=O)OC[C@H](N)CCC(N)=O [Compound DU, Carbamic acid 6-amino-2-[6-amino-2-(2-amino-4-carbamoyl-butoxycarbonylamino)-hexanoylamino]-hexyl ester] | 639 nM | 
17 | N=C(N)NCCC[C@@H](CNC(=O)N[C@@H](CCCCN)CNC(=O)N[C@H](CN)CCCNC(=N)N)NC(N)=O [Compound DV, 1-{5-Amino-1-[3-(1-aminomethyl-4-guanidino-butyl)-ureidomethyl]-pentyl}-3-(5-guanidino-2-ureido-pentyl)-urea] |  | Kd [1]: 500 nM
18 | N=C(N)NCCC[C@@H](CNC(=O)N[C@@H](CCCCN)CNC(=O)N[C@H](CN)CCCCN)NC(N)=O [Compound DW, 1-{5-Amino-1-[3-(5-amino-1-aminomethyl-pentyl)-ureidomethyl]-pentyl}-3-(5-guanidino-2-ureido-pentyl)-urea] |  | Kd [1]: 50 nM
19 | N=C(N)NCCC[C@@H](CNC(=O)N[C@@H](CCCCN)CNC(=O)NCCN)NC(N)=O [Compound DY] |  | Kd [1]: 150 nM
20 | TAT: virally encoded HIV trans-acting regulatory protein that specifically recognizes TAR RNA |  | Kd (TAR RNA [3]): 12 nM
